This assay deals with T1, Human acid ceramidase (hACR) (Homo sapiens, UniProt Q13510).
T1 construct: expressed in transfected cells; lysates of cells overexpressing acid ceramidase
T1 sequence (Q13510 22-395): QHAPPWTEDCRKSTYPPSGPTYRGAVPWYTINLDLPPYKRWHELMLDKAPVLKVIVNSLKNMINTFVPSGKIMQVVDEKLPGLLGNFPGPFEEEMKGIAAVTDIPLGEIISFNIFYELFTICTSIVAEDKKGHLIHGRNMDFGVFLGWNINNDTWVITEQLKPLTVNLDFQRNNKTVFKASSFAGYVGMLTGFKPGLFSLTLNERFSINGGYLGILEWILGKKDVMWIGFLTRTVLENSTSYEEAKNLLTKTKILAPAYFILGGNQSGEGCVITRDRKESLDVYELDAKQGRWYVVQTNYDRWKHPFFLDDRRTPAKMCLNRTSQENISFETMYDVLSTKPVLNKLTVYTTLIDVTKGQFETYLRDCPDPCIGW
The experiment in a line: Acid ceramidase biochemical fluorescent assay (cell lysates overexpressing acid ceramidase, substrate Rbm14-12). The following applies: 10 μg lysate protein, 1 hr preincubation at RT, pH 4.5, Rbm14-12 6.3 μM. How it is done:
The ability of exemplary compounds to inhibit acid ceramidase was measured.
Cell lysates overexpressing acid ceramidase were used as the enzyme source for compound potency determination in a biochemical fluorescent assay. Briefly, compounds were preincubated with 10 μg protein of cell lysates in a dose-response manner for 1 hr at RT in the assay buffer containing 25 mM NaAC and 100 mM NaCl, pH 4.5. The reaction was initiated by the addition of substrate Rbm14-12 at a final concentration of 6.3 μM. The reaction was run at RT for 1 hr before it was stopped by the addition of the stopping buffer containing 20% methanol (v/v), 1 mg/ml NaIO4, 0.1 M glycine, pH 10.6. The samples were incubated with the stopping buffer at RT for 1 hr to allow the fluorescent product to be formed. Finally the plate was read with SpectraMax i3 plate reader (Molecular Devices) at ex360 nm and em446 nm. Data were collected and used to determine the IC50 values of compounds by curve fitting to the four-parameter inhibition equation.
The symbol “A” indicates inhibition of less than 0.2 μM; the symbol “B” indicates inhibition in the range of 0.2 μM up to 1 μM; and the symbol “C” indicates inhibition of greater than 1 μM.
With `Cn1c(=O)oc2cc(C3=CCCN(C(=O)NCCCCc4ccccc4)C3)ccc21` [Example 15, 5-(3-methyl-2-oxo-1,3-benzoxazol-6-yl)-N-(4-phenylbutyl)-3,6-dihydro-2H-pyridine-1-carboxamide], the IC50 (usually the point on the concentration scale where inhibition reaches its midpoint) was 200 to 1000 nM.
To `Cn1c(=O)oc2cc(N3CC4CCC(C3)N4C(=O)NCCCCc3ccccc3)ccc21` [Example 61, 3-(3-Methyl-2-oxo-1,3-benzoxazol-6-yl)-N-(4-phenylbutyl)-3,8-diazabicyclo[3.2.1]octane-8-carboxamide] belongs over 1000 nM.
As for `CCCCCNC(=O)N1CCCC(c2ccc3c(c2)oc(=O)n3C)C1` (centres unmarked) [Example 13, 3-(3-Methy-2-oxo-1,3-benzoxazol-6-yl)-N-pentyl-piperidine-1-carboxamide], the IC50 is over 1000 nM.
The result for `CC1(C)CC(c2ccc3[nH]c(=O)oc3c2)CCN1C(=O)NCCCCc1ccccc1` (centres unmarked) [Example 23, 2,2-Dimethyl-4-(2-oxo-3H-1,3-benzoxazol-6-yl)-N-(4-phenylbutyl)piperidine-1-carboxamide] reads under 200 nM; that for `O=C(NCCCCc1ccccc1)N1CCN(c2ccc3[nH]c(=O)oc3c2)CC1` [Example 45, 4-(2-Oxo-3H-1,3-benzoxazol-6-yl)-N-(4-phenylbutyl)piperazine-1-carboxamide], over 1000 nM.
In turn, `CCOCCNC(=O)N1CCN(c2ccc3c(c2)oc(=O)n3C)CC1(C)C` [Example 55, N-(2-Ethoxyethyl)-2,2-dimethyl-4-(3-methyl-2-oxo-1,3-benzoxazol-6-yl)piperazine-1 carboxamide] showed an IC50 of over 1000 nM.
The result for `CN(C)CCn1c(=O)oc2cc(C3CCN(C(=O)NCCCCc4ccccc4)C(C)(C)C3)ccc21` (centres unmarked) [Example 32, 4-[3-[2-(Dimethylamino)ethyl]-2-oxo-1,3-benzoxazol-6-yl]-2,2-dimethyl-N-(4-phenylbutyl)piperidine-1-carboxamide] reads under 200 nM.
The result for `Cn1c(=O)oc2cc(C3CCN(C(=O)NCCCCc4ccccc4)C4(COC4)C3)ccc21` (centres unmarked) [Example 34, 8-(3-Methyl-2-oxo-1,3-benzoxazol-6-yl)-N-(4-phenylbutyl)-2-oxa-5-azaspiro[3.5]nonane-5-carboxamide] reads over 1000 nM.
For `CCOCCNC(=O)N1CCCC(c2ccc3c(c2)oc(=O)n3C)C1` (centres unmarked) [Example 14, N-(2-Ethoxyethyl)-3-(3-methyl-2-oxo-1,3-benzoxazol-6-yl)piperidine-1-carboxamide], the IC50 is over 1000 nM.
To `O=C(NCCCCc1ccccc1)N1CC2(CCN(c3ccc4[nH]c(=O)oc4c3)CC2)C1` [Example 67, 7-(2-Oxo-3H-1,3-benzoxazol-6-yl)-N-(4-phenylbutyl)-2,7-diazaspiro[3.5]nonane-2-carboxamide] belongs over 1000 nM.
The result for `Cn1c(=O)oc2cc(N3C[C@H]4CN(C(=O)NCCCCc5ccccc5)C[C@H]4C3)ccc21` [Example 66, (3aS,6aR)- and (3aR,6aS)-2-(3-Methyl-2-oxo-1,3-benzoxazol-6-yl)-N-(4-phenylbutyl)-1,3,3a,4,6,6a-hexahydropyrrolo[3,4-c]pyrrole-5-carboxamide] reads under 200 nM.
The result for `C[C@H]1CN(c2ccc3c(c2)oc(=O)n3C)CCN1C(=O)NCCCCc1ccccc1` [Example 49, (2S)-2-Methyl-4-(3-methyl-2-oxo-1,3-benzoxazol-6-yl)-N-(4-phenylbutyl)piperazine-1-carboxamide] reads 200 to 1000 nM; that for `CC(C)CNC(=O)N1CCC(c2ccc3c(c2)oc(=O)n3C)C[C@H]1C` (mixture of isomers) [Example 19, N-iso-Butyl (2R)-methyl-4-(3-methyl-2-oxo-1,3-benzoxazol-6-yl)piperidine-1-carboxamide], over 1000 nM.
With `Cn1c(=O)oc2cc(N3CCN(C(=O)NCCCCc4ccccc4)C4(CC4)C3)ccc21` [Example 60, 7-(3-Methyl-2-oxo-1,3-benzoxazol-6-yl)-N-(4-phenylbutyl)-4,7-diazaspiro[2.5]octane-4-carboxamide], the IC50 was over 1000 nM.
The result for `Cn1c(=O)oc2cc(N3CC4(COC4)N(C(=O)NCCCCc4ccccc4)CC3=O)ccc21` [Example 62, 8-(3-Methyl-2-oxo-1,3-benzoxazol-6-yl)-7-oxo-N-(4-phenylbutyl)-2-oxa-5,8-diazaspiro[3.5]nonane-5-carboxamide] reads 200 to 1000 nM; that for `O=C(NCCCCc1ccccc1)N1CCCCC1c1ccc2[nH]c(=O)oc2c1` (centres unmarked) [Example 36, 2-(2-Oxo-3H-1,3-benzoxazol-6-yl)-N-(4-phenylbutyl)piperidine-1-carboxamide], over 1000 nM.
In the case of `Cn1c(=O)oc2cc(C3COCCN3C(=O)NCCCCc3ccccc3)ccc21` (centres unmarked) [Example 38, 3-(3-Methyl-2-oxo-1,3-benzoxazol-6-yl)-N-(4-phenylbutyl)morpholine-4-carboxamide], the IC50 is over 1000 nM.
As for `COCCCNC(=O)N1CCN(c2ccc3c(c2)oc(=O)n3C)CC1(C)C` [Example 56, N-(3-Methoxypropyl)-2,2-dimethyl-4-(3-methyl-2-oxo-1,3-benzoxazol-6-yl)piperazine-1-carboxamide], the IC50 is over 1000 nM.
In turn, `C[C@@H]1CC(c2ccc3c(c2)oc(=O)n3C)CCN1C(=O)NCCCCc1ccccc1` (mixture of isomers) [Example 17, (2R)-2-Methyl-4-(3-methyl-2-oxo-1,3-benzoxazol-6-yl)-N-(4-phenylbutyl)piperidine-1-carboxamide] had an IC50 of under 200 nM.
For `COCCCNC(=O)N1CCC(c2ccc3c(c2)oc(=O)n3C)CC1(C)C` (centres unmarked) [Example 30, N-(3-methoxypropyl)-2,2-dimethyl-4-(3-methyl-2-oxo-1,3-benzoxazol-6-yl)piperidine-1-carboxamide], the IC50 was over 1000 nM.
The result for `Cn1c(=O)oc2cc(C3CCN(C(=O)NC4CCCCC4)CC3)ccc21` [Example 5, N-Cyclohexyl-4-(3-methyl-2-oxo-1,3-benzoxazol-6-yl)piperidine-1-carboxamide] reads over 1000 nM.
Take `Cn1c(=O)oc2cc(N3CCC4(CCN(C(=O)NCCCCc5ccccc5)CC4)CC3)ccc21` [Example 71, 9-(3-Methyl-2-oxo-1,3-benzoxazol-6-yl)-N-(4-phenylbutyl)-3,9-diazaspiro[5.5]undecane-3-carboxamide]: the IC50 was over 1000 nM.
As to `O=C(NCCCCc1ccccc1)N1CCC2(CC1)CN(c1ccc3[nH]c(=O)oc3c1)C2` [Example 69, 2-(2-Oxo-3H-1,3-benzoxazol-6-yl)-N-(4-phenylbutyl)-2,7-diazaspiro[3.5]nonane-7-carboxamide], the IC50 was over 1000 nM.
In the case of `Cn1c(=O)oc2cc(C3CCCN3C(=O)NCCCCc3ccccc3)ccc21` (centres unmarked) [Example 44, 2-(3-Methyl-2-oxo-1,3-benzoxazol-6-yl)-N-(4-phenylbutyl)pyrrolidine-1-carboxamide], the IC50 is over 1000 nM.
The result for `C[C@@H]1CC(c2ccc3c(c2)oc(=O)n3C)CCN1C(=O)NCCc1ccccc1` (mixture of isomers) [Example 18, (2R)-2-Methyl-4-(3-methyl-2-oxo-1,3-benzoxazol-6-yl)-N-(2-phenylethyl)piperidine-1-carboxamide] reads 200 to 1000 nM; that for `O=C(NCCCCc1ccccc1)N1CCCC(c2ccc3[nH]c(=O)oc3c2)C1` (centres unmarked) [Example 11, 3-(2-Oxo-3H-1,3-benzoxazol-6-yl)-N-(4-phenylbutyl)piperidine-1-carboxamide], over 1000 nM.

Values taken from patent US20220402901A1 (Bial - R&D Investments, S.A., priority 2019, published 2022).
